# From patent US12486280B2, “CDK inhibitors and uses thereof” (California Institute of Technology, priority 2018, dated 2025)
# pIC50, pKi: −log10 of the molar value. Read-outs that look alike come from different tables or passages of the source.
# Columns and labels:
# [1] = Compound Solubility Assay (kinetic solubility); assay type: physicochemical; conditions: kinetic from dmso stock
# Method: The relative kinetic solubility of each compound was determined at both low (1.2) and neutral (7.4) pH. Compounds were prepared at 10 mM stocks. […] Compounds were allowed to shake at room temperature for 24 hours in 50 mM phosphate buffer pH 7.4, or in SGF buffer pH 1.2 at 37° C. for 24 hours.
# [2] = tested on: CYP isozymes (IC50s averaged over the isozymes); experiment: CYP Enzymatic Inhibition Assay in human liver microsomes
# Method: Inhibition of various CYP isozymes was measured for each compound using a CYP enzyme inhibition assay in human liver microsomes (HLM). Compounds and standard inhibitors were prepared at a 100× working solutions. Substrates or PBS were added to the corresponding wells followed by addition of compounds, solvent or positive control working solution to corresponding wells. HLMs were added to the pre-warmed (37° C.) plate and mixed with NADPH cofactor for 10 minutes at 37° C. The reaction was terminated by adding 400 μL cold stop solution (200 ng/mL Tolbutamide and 200 ng/mL Labetalol in ACN). The plate was centrifuged at 4,000 rpm for 20 minutes, and supernatant was transferred to 100 μL HPLC water followed by LC/MS/MS analysis.
# CDK6 = CDK6 (Homo sapiens (Human), UniProt Q00534); experiment: Cdk4 and 6 Enzymatic Inhibition Assay (radiometric 33PanQinase, Ki determination); assay type: biochemical
# Chain of CDK6 (Q00534 whole entry): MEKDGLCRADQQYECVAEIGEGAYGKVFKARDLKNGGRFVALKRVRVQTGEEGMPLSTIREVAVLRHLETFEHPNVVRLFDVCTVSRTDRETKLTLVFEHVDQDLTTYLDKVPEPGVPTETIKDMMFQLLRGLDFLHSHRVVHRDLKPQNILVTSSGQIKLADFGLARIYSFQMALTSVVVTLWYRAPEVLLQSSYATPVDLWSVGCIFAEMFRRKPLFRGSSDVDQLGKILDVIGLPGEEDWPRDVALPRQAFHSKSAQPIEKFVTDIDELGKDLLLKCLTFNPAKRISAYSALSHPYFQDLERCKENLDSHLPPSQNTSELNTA
# Chain of CDK6 (P24385 whole entry partner): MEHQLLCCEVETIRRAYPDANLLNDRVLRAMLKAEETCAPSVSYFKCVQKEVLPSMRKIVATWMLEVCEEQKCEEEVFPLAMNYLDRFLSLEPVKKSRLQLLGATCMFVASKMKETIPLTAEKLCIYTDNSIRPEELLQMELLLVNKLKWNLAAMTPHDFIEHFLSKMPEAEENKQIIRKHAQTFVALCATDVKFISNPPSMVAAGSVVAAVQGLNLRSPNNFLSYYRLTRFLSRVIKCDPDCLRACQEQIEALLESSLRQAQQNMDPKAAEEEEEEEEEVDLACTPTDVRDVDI
# Procedure, shortened: (§1)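 Radiometric 33PanQinase assay in 70 mM HEPES-NaOH pH 7.5 with 3 mM MgCl2, 3 mM MnCl2, [γ-33P]-ATP, kinase and substrate; 60 min at 30° C, 1% DMSO final. Ten final concentrations from 2×10^−6 M to 6×10^−11 M; 33Pi incorporation counted by scintillation after H3PO4 stop.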
# CDK4 = CDK4 (Homo sapiens (Human), UniProt P11802); experiment: as above; assay type: biochemical
# Chain of CDK4 (P11802 whole entry): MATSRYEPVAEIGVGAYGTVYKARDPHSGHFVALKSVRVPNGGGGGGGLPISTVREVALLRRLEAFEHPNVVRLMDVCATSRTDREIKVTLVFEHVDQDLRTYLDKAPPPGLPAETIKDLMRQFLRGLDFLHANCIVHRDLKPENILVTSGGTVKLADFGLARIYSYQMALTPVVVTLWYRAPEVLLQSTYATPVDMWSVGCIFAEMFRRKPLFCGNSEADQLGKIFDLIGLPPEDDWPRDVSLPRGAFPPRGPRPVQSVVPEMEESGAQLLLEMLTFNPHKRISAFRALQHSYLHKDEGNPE
# Chain of CDK4 (P24385 whole entry partner): as the sequence (P24385 whole entry partner) above
# Procedure, shortened: as §1
# [3] = Measurement of Compound Metabolic Stability in hepatocytes
# Method: The metabolic stability of compounds was determined in hepatocytes from mice and rats. Compounds were diluted to 5 μM in Williams' Medium E from 10 mM stock solutions. 10 μL of each compound was aliquoted into a well of a 96-well plate and reactions were started by aliquoting 40 μL of a 625,000 cells/mL suspension into each well. The plate was incubated at 37° C. with 5% CO2. At each corresponding time point, the reaction was stopped by quenching with ACN containing internal standards (IS) at a 1:3. Plates were shaken at 500 rpm for 10 min, and then centrifuged at 3,220×g for 20 minutes. Supernatants were transferred to another 96-well plate containing a dilution solution. Supernatants were analyzed by LC/MS/MS. Compound half-life was estimated using the following equation:
# [4] = tested on: drug-sensitive cell lines of Table 2 (EFM-19, MDA-MB-453, T-47D, ZR-75-1, NCI-H441, OVTOKO, NCI-H1838); experiment: Cell Line Growth Retardation Assay, sensitive cohort; assay type: cell-based, human; conditions: for pIC50: Homo sapiens, geometric mean over sensitive cohort, 6 days growth, read-out: AvgSensIC50; for Ther Window: average IC50 drug-resistant group divided by average IC50 drug-sensitive group
# Procedure, shortened: (§2)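 Cells rested 24 h, then exposed 6 days to compound at 10, 2, 0.4, 0.08, 0.016 and 0.0032 μM; counted by imaging on day 0 and day 6. Growth inhibition as ratio of population doublings versus vehicle; IC50 from curve fits, cohort values as geometric means.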
# [5] = tested on: drug-resistant cell lines of Table 2 (NCI-H1437, OV207, HCC1806, NCI-H2172); experiment: Cell Line Growth Retardation Assay, resistant cohort; assay type: cell-based, human; conditions: Homo sapiens, […], geometric mean over resistant cohort; 6 days growth; read-out: AvgResIC50
# Procedure, shortened: as §2
# hERG potassium channels = hERG potassium channels (Homo sapiens (Human), UniProt Q12809); experiment: hERG Inhibition Assay (QPatch automated patch clamp, CHO cells); conditions: percent of control current
# Chain of hERG potassium channels (Q12809 whole entry): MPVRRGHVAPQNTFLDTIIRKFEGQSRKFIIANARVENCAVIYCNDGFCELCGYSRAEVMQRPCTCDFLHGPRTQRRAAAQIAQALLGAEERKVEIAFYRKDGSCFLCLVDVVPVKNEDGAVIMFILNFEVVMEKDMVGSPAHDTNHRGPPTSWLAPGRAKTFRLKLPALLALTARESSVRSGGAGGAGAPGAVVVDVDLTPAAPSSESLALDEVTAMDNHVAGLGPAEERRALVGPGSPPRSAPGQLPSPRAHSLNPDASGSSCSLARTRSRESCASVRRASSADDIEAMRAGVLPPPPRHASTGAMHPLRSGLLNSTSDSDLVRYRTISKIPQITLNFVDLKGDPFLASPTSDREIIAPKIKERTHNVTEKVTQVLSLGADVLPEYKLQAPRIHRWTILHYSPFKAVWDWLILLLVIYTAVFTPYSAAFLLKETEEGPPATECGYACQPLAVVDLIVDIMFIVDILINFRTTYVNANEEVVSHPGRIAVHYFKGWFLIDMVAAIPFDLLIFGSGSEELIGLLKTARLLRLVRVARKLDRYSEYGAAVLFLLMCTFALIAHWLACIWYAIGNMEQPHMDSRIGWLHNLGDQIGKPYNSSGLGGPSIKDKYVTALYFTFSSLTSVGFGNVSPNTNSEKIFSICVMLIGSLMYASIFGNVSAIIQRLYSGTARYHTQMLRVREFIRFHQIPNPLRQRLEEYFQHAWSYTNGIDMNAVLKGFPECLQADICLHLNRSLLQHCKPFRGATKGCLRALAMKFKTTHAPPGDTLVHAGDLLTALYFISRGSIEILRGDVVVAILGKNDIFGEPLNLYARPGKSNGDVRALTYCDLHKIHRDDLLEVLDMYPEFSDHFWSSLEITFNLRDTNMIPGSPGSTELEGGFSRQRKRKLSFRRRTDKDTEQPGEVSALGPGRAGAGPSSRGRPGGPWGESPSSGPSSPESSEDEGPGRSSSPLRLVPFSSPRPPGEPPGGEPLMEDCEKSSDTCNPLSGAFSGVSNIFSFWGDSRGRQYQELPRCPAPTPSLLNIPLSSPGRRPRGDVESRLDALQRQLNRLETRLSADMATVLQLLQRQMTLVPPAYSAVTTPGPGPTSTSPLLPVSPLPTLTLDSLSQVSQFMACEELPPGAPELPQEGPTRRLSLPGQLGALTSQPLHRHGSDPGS
# [6] = Caco-2 Assay (Papp A to B); conditions: human, Caco-2, pH 7.4
# Method: The degree of bi-directional human intestinal permeability for compounds was estimated using a Caco-2 cell permeability assay. Caco-2 cells were seeded onto polyethylene membranes in 96-well plates. The growth medium was refreshed every 4 to 5 days until cells formed a confluent cell monolayer. HBSS with 10 mM HEPES at pH 7.4 was used as the transport buffer. Compounds were tested at 2 μM bi-directionally in duplicate. Digoxin, nadolol and metoprolol were included as standards. Digoxin was tested at 10 μM bi-directionally in duplicate, while nadolol and metoprolol were tested at 2 μM in the A to B direction in duplicate. The final DMSO concentration was adjusted to less than 1% for all experiments. The plate was incubated for 2 hours in a CO2 incubator at 37° C., with 5% CO2 at saturated humidity. After incubation, all wells were mixed with acetonitrile containing an internal standard, and the plate was centrifuged at 4,000 rpm for 10 minutes. 100 μL supernatant was collected from each well and diluted with 100 μL distilled water for LC/MS/MS analysis. Concentrations of test and control compounds in starting solution, donor solution, and receiver solution were quantified by LC/MS/MS, using peak area ratio of analyte/internal standard. The apparent permeability coefficient Papp (cm/s) was calculated using the equation: Papp=(dCr/dt)×Vr/(A×C0) Where dCr/dt is the cumulative concentration of compound in the receiver chamber as a function of time (μM/s); Vr is the solution volume in the receiver chamber (0.075 mL on the apical side, 0.25 mL on the basolateral side); A is the surface area for the transport, which is 0.0804 cm^2 for the area of the monolayer; C0 is the initial concentration in the donor chamber (μM).
# [7] = 50 mM phosphate buffer, pH 7.4, aqueous buffer, read-out: KS7
# [8] = simulated gastric fluid, kinetic solubility, SGF buffer pH 1.2, 37° C., 24 hours, read-out: KS1
Compound,"solubility kinetic at 24 h [1, 7]","solubility kinetic at 24 h [1, 8]",IC50 at 10 min [2],pKi (CDK6),pKi (CDK4),half-life at 1 μM [3],pIC50 [4],Ther Window [4],pIC50 [5],hERG (hERG potassium channels),"Papp A→B at 2 h, 2 μM [6]"
"Cc1nc2c(F)cc(-c3nc(Nc4ccc(CN5CCO[C@@](C)(CCO)C5)cn4)ncc3F)cc2n1C(C)C [Compound A50, (S)-2-(4-((6-((5-fluoro-4-(4-fluoro-1-isopropyl-2-methyl-1H-benzo[d]imidazol-6-yl)pyrimidin-2-yl)amino)pyridin-3-yl)methyl)-2-methylmorpholin-2-yl)ethan-1-ol]",1.13 µM,200 µM,35000 nM,8.27,9.11,17.5 min,7.15,9.87,6.14,18.96%,3.25 ×10⁻⁶ cm/s
COC(=O)N1CC[C@@]2(CN(Cc3ccc(Nc4ncc(F)c(-c5cc(F)c6nc(C)n(C(C)C)c6c5)n4)nc3)CCO2)C1 [Compound A33],2.02 µM,200 µM,18700 nM,7.70,8.47,4.73 min,6.82,6.51,6.00,18.72%,3.94 ×10⁻⁶ cm/s
"Cc1nc2c(F)cc(-c3nc(Nc4ccc(CN5CCO[C@](C)(CCNCC(F)(F)F)C5)cn4)ncc3F)cc2n1C(C)C [Compound A9, (R)-5-fluoro-4-(4-fluoro-1-isopropyl-2-methyl-1H-benzo[d]imidazol-6-yl)-N-(5-((2-methyl-2-(2-((2,2,2-trifluoroethyl)amino)ethyl)morpholino)methyl)pyridin-2-yl)pyrimidin-2-amine]",1 µM,200 µM,26100 nM,7.84,8.60,15.3 min,6.92,8.59,6.00,21.86%,2.14 ×10⁻⁶ cm/s
"Cc1nc2c(F)cc(-c3nc(Nc4ccc(CN5CCO[C@](C)(CCN6CCOCC6)C5)cn4)ncc3F)cc2n1C(C)C [Compound A19, (R)-5-fluoro-4-(4-fluoro-1-isopropyl-2-methyl-1H-benzo[d]imidazol-6-yl)-N-(5-((2-methyl-2-(2-morpholinoethyl)morpholino)methyl)pyridin-2-yl)pyrimidin-2-amine]",139 µM,200 µM,29000 nM,8.15,8.86,16.8 min,6.72,5.12,6.01,18.14%,0.91 ×10⁻⁶ cm/s
"Cc1nc2c(F)cc(-c3nc(Nc4ccc(CN5CCNC(C)(C)C5)cn4)ncc3F)cc2n1C(C)C [Compound A44, N-(5-((3,3-dimethylpiperazin-1-yl)methyl)pyridin-2-yl)-5-fluoro-4-(4-fluoro-1-isopropyl-2-methyl-1H-benzo[d]imidazol-6-yl)pyrimidin-2-amine]",6.3 µM,200 µM,64200 nM,8.52,9.15,81.2 min,7.05,10.25,6.02,10.84%,0.01 ×10⁻⁶ cm/s
"Cc1nc2c(F)cc(-c3nc(Nc4ccc(CN5CC6(C5)CS(=O)(=O)C6)cn4)ncc3F)cc2n1C(C)C [Compound A62, 6-((6-((5-fluoro-4-(4-fluoro-1-isopropyl-2-methyl-1H-benzo[d]imidazol-6-yl)pyrimidin-2-yl)amino)pyridin-3-yl)methyl)-2-thia-6-azaspiro[3.3]heptane 2,2-dioxide]",1 µM,190 µM,33900 nM,8.42,9.23,33.9 min,7.05,8.11,6.14,40.8%,0.15 ×10⁻⁶ cm/s
"Cc1nc2c(F)cc(-c3nc(Nc4ccc(CN5CCO[C@@](C)(C[C@@H](C)N(C)C)C5)cn4)ncc3F)cc2n1C(C)C [Compound A28, N-(5-(((S)-2-((R)-2-(dimethylamino)propyl)-2-methylmorpholino)methyl)pyridin-2-yl)-5-fluoro-4-(4-fluoro-1-isopropyl-2-methyl-1H-benzo[d]imidazol-6-yl)pyrimidin-2-amine methanesulfonate]",15.8 µM,200 µM,94000 nM,8.59,9.34,55.2 min,7.15,5.23,6.41,6.78%,0.09 ×10⁻⁶ cm/s
CC(=O)N1CC[C@@]2(CN(Cc3ccc(Nc4ncc(F)c(-c5cc(F)c6nc(C)n(C(C)C)c6c5)n4)nc3)CCO2)C1 [Compound A36],3.28 µM,200 µM,23400 nM,7.97,8.72,30.8 min,6.60,3.57,6.04,21.60%,0.59 ×10⁻⁶ cm/s
"CNCC[C@@]1(C)CN(Cc2ccc(Nc3ncc(F)c(-c4cc(F)c5nc(C)n(C(C)C)c5c4)n3)nc2)CCO1 [Compound A22, (S)-5-fluoro-4-(4-fluoro-1-isopropyl-2-methyl-1H-benzo[d]imidazol-6-yl)-N-(5-((2-methyl-2-(2-(methylamino)ethyl)morpholino)methyl)pyridin-2-yl)pyrimidin-2-amine]",15.6 µM,200 µM,35800 nM,8.45,9.28,202 min,7.10,10.57,6.06,15.58%,0.05 ×10⁻⁶ cm/s
Cc1nc2c(F)cc(-c3nc(Nc4ccc(CN5CCO[C@](C)(C[C@@H](C)N(C)C)C5)cn4)ncc3F)cc2n1C(C)C [Compound A26],140 µM,200 µM,51500 nM,8.06,8.76,89.4 min,6.89,6.10,6.11,39.08%,0.03 ×10⁻⁶ cm/s
"COC(=O)N1CC[C@]2(CN(Cc3ccc(Nc4ncc(F)c(-c5cc(F)c6nc(C)n(C(C)C)c6c5)n4)nc3)CCO2)C1 [Compound A30, methyl (S)-9-((6-((5-fluoro-4-(4-fluoro-1-isopropyl-2-methyl-1H-benzo[d]imidazol-6-yl)pyrimidin-2-yl)amino)pyridin-3-yl)methyl)-6-oxa-2,9-diazaspiro[4.5]decane-2-carboxylate]",2.52 µM,200 µM,30000 nM,7.78,8.53,4.99 min,6.96,9.41,6.00,15.21%,4.6 ×10⁻⁶ cm/s
"CC(=O)N1CC[C@]2(CN(Cc3ccc(Nc4ncc(F)c(-c5cc(F)c6nc(C)n(C(C)C)c6c5)n4)nc3)CCO2)C1 [Compound A37, (S)-1-(9-((6-((5-fluoro-4-(4-fluoro-1-isopropyl-2-methyl-1H-benzo[d]imidazol-6-yl)pyrimidin-2-yl)amino)pyridin-3-yl)methyl)-6-oxa-2,9-diazaspiro[4.5]decan-2-yl)ethan-1-one]",109 µM,197 µM,43300 nM,8.16,8.80,27 min,6.59,3.10,6.09,15.08%,0.39 ×10⁻⁶ cm/s
"Cc1nc2c(F)cc(-c3nc(Nc4ccc(CN5CCN(C)C(C)(C)C5)cn4)ncc3F)cc2n1C(C)C [Compound A43, 5-fluoro-4-(4-fluoro-1-isopropyl-2-methyl-1H-benzo[d]imidazol-6-yl)-N-(5-((3,3,4-trimethylpiperazin-1-yl)methyl)pyridin-2-yl)pyrimidin-2-amine]",8.37 µM,200 µM,90600 nM,8.38,9.11,24.2 min,7.15,15.03,6.00,12.12%,0.27 ×10⁻⁶ cm/s
